The target in the assay is T1, cyclin D1/cdk 4 enzyme (Homo sapiens, UniProt P11802).
T1 construct: made in house; host or cells: Sf9 insect cells, recombinant baculovirus
T1 sequence (P11802 whole entry, species assumed): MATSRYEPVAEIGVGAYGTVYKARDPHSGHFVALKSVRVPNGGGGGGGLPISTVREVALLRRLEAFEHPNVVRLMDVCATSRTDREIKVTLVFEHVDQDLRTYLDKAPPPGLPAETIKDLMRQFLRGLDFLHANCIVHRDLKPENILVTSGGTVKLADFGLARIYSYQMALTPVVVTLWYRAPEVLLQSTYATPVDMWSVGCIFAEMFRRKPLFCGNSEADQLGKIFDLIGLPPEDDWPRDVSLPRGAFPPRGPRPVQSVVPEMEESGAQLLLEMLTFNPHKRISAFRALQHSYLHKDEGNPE
T1 sequence (P24385 whole entry partner, species assumed): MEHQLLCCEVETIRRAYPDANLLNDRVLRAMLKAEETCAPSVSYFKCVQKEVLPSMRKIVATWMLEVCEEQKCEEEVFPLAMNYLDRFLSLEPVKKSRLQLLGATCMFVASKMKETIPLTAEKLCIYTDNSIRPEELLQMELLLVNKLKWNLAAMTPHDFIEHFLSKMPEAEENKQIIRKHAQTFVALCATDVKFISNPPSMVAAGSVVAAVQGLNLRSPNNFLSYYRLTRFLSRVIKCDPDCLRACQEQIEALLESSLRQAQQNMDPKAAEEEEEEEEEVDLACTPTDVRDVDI
Description: CDK4 ELISA kinase assay (phospho-Rb ser 795 detection). It is filed as biochemical. The settings on record: In Vitro Enzyme Assay, cyclin D1/cdk 4, read-out: CDK4 IC50. The method, boiled down:
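Inhibition was derived from A450 relative to control wells lacking compound, following an anti-phospho-Rb Ser795 sandwich of HRP detection. The reactions combined coated GST-Rb fragment, 200 μM ATP and baculovirus-expressed cyclin/CDK enzymes, incubated for 1 h at 30° C.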
With `CN1CCN(c2ccc(NC=C3C(=O)NC(=O)c4ccc(-c5cccc(C(=O)O)c5)cc43)cc2)CC1` [Example 686, 3-(4-{[4-(4-Methyl-piperazin-1-yl)-phenylamino]-methylene}-1,3-dioxo-1,2,3,4-tetrahydro-isoquinolin-6-yl)-benzoic acid], the IC50 came to 6.4 µM. Take `CN1CCN(c2ccc(NC=C3C(=O)NC(=O)c4ccc(-c5ccc(C(F)(F)F)cc5)cc43)cc2)CC1` [Example 687, 4-{[4-(4-Methyl-piperazin-1-yl)-phenylamino]-methylene}-6-(4-trifluoromethyl-phenyl)-4H-isoquinoline-1,3-dione]: the IC50 stood at 20.9 µM. Turning to `CN1CCN(c2ccc(NC=C3C(=O)NC(=O)c4ccc(-c5cccc(Cl)c5)cc43)cc2)CC1` [Example 690, 6-(3-Chloro-phenyl)-4-{[4-(4-methyl-piperazin-1-yl)-phenylamino]-methylene}-4H-isoquinoline-1,3-dione], the IC50 was 20.7 µM. Consider `Cc1ccc(-c2ccc3c(c2)C(=CNc2ccc(N4CCN(C)CC4)cc2)C(=O)NC3=O)cc1` [Example 692, 4-{[4-(4-Methyl-piperazin-1-yl)-phenylamino]-methylene}-6-p-tolyl-4H-isoquinoline-1,3-dione], for which the IC50 came to 30.7 µM. The figure for `Cc1cccc(-c2ccc3c(c2)C(=CNc2ccc(N4CCN(C)CC4)cc2)C(=O)NC3=O)c1` [Example 693, 4-{[4-(4-Methyl-piperazin-1-yl)-phenylamino]-methylene}-6-m-tolyl-4H-isoquinoline-1,3-dione] is 25.7 µM; for `Cc1ccccc1-c1ccc2c(c1)C(=CNc1ccc(N3CCN(C)CC3)cc1)C(=O)NC2=O` [Example 694, 4-{[4-(4-Methyl-piperazin-1-yl)-phenylamino]-methylene}-6-o-tolyl-4H-isoquinoline-1,3-dione] it is 32.3 µM; for `CN1CCN(c2ccc(NC=C3C(=O)NC(=O)c4ccc(-c5cccc(C#N)c5)cc43)cc2)CC1` [Example 695, 3-(4-{[4-(4-Methyl-piperazin-1-yl)-phenylamino]-methylene}-1,3-dioxo-1,2,3,4-tetrahydro-isoquinolin-6-yl)-benzonitrile] it is 14.3 µM. Consider `CN1CCN(c2ccc(NC=C3C(=O)NC(=O)c4ccc(-c5ccc(-c6ccccc6)cc5)cc43)cc2)CC1` [Example 696, 6-Biphenyl-4-yl-4-{[4-(4-methyl-piperazin-1-yl)-phenylamino]-methylene}-4H-isoquinoline-1,3-dione], for which the IC50 worked out at 27.3 µM.

Turning to `CN1CCN(c2ccc(NC=C3C(=O)NC(=O)c4ccc(-c5cccc(-c6ccccc6)c5)cc43)cc2)CC1` [Example 697, 6-Biphenyl-3-yl-4-{[4-(4-methyl-piperazin-1-yl)-phenylamino]-methylene}-4H-isoquinoline-1,3-dione], the IC50 was found to be 48.6 µM. As for `CSc1ccc(-c2ccc3c(c2)C(=CNc2ccc(N4CCN(C)CC4)cc2)C(=O)NC3=O)cc1` [Example 700, 4-{[4-(4-Methyl-piperazin-1-yl)-phenylamino]-methylene}-6-(4-methylsulfanyl-phenyl)-4H-isoquinoline-1,3-dione], the IC50 is 45 µM.

For the compound `COc1cccc(-c2ccc3c(c2)C(=CNc2ccc(CC#N)cc2)C(=O)NC3=O)c1` [Example 702, (4-{[6-(3-Methoxy-phenyl)-1,3-dioxo-2,3-dihydro-1H-isoquinolin-4-ylidenemethyl]-amino}-phenyl)-acetonitrile], the IC50 was 20.9 µM. As to `COc1ccccc1-c1ccc2c(c1)C(=CNc1ccc(CC#N)cc1)C(=O)NC2=O` [Example 703, (4-{[6-(2-Methoxy-phenyl)-1,3-dioxo-2,3-dihydro-1H-isoquinolin-4-ylidenemethyl]-amino}-phenyl)-acetonitrile], the IC50 was found to be 18.5 µM.

Consider `N#CCc1ccc(NC=C2C(=O)NC(=O)c3ccc(-c4cccc(F)c4)cc32)cc1` [Example 705, (4-{[6-(3-Fluoro-phenyl)-1,3-dioxo-2,3-dihydro-1H-isoquinolin-4-ylidenemethyl]-amino}-phenyl)-acetonitrile], for which the IC50 came out at 12.6 µM. Turning to `N#CCc1ccc(NC=C2C(=O)NC(=O)c3ccc(-c4ccc(C(=O)O)cc4)cc32)cc1` [Example 707, 4-{4-[(4-Cyanomethyl-phenylamino)-methylene]-1,3-dioxo-1,2,3,4-tetrahydro-isoquinolin-6-yl}-benzoic acid], the IC50 was found to be 3.8 µM. The figure for `N#CCc1ccc(NC=C2C(=O)NC(=O)c3ccc(-c4cccc(C(=O)O)c4)cc32)cc1` [Example 708, 3-{4-[(4-Cyanomethyl-phenylamino)-methylene]-1,3-dioxo-1,2,3,4-tetrahydro-isoquinolin-6-yl}-benzoic acid] is 10 µM; for `N#CCc1ccc(NC=C2C(=O)NC(=O)c3ccc(-c4ccc(C(F)(F)F)cc4)cc32)cc1` [Example 709, (4-{[1,3-Dioxo-6-(4-trifluoromethyl-phenyl)-2,3-dihydro-1H-isoquinolin-4-ylidenemethyl]-amino}-phenyl)-acetonitrile] it is 38.6 µM; for `CC(=O)c1ccc(-c2ccc3c(c2)C(=CNc2ccc(CC#N)cc2)C(=O)NC3=O)cc1` [Example 710, (4-{[6-(4-Acetyl-phenyl)-1,3-dioxo-2,3-dihydro-1H-isoquinolin-4-ylidenemethyl]-amino}-phenyl)-acetonitrile] it is 28 µM. On to `N#CCc1ccc(NC=C2C(=O)NC(=O)c3ccc(-c4ccc(Cl)cc4)cc32)cc1` [Example 712, (4-{[6-(4-Chloro-phenyl)-1,3-dioxo-2,3-dihydro-1H-isoquinolin-4-ylidenemethyl]-amino}-phenyl)-acetonitrile], for which the IC50 came out at 7.9 µM. For `N#CCc1ccc(NC=C2C(=O)NC(=O)c3ccc(-c4cccc(Cl)c4)cc32)cc1` [Example 713, (4-{[6-(3-Chloro-phenyl)-1,3-dioxo-2,3-dihydro-1H-isoquinolin-4-ylidenemethyl]-amino}-phenyl)-acetonitrile] the value was 12.8 µM. The figure for `Cc1ccccc1-c1ccc2c(c1)C(=CNc1ccc(CC#N)cc1)C(=O)NC2=O` [Example 717, {4-[(1,3-Dioxo-6-o-tolyl-2,3-dihydro-1H-isoquinolin-4-ylidenemethyl)-amino]-phenyl}-acetonitrile] is 13.3 µM; for `N#CCc1ccc(NC=C2C(=O)NC(=O)c3ccc(-c4ccc(C#N)cc4)cc32)cc1` [Example 718, 4-{4-[(4-Cyanomethyl-phenylamino)-methylene]-1,3-dioxo-1,2,3,4-tetrahydro-isoquinolin-6-yl}-benzonitrile] it is 8.2 µM; for `N#CCc1ccc(NC=C2C(=O)NC(=O)c3ccc(-c4cccc(C#N)c4)cc32)cc1` [Example 719, 3-{4-[(4-Cyanomethyl-phenylamino)-methylene]-1,3-dioxo-1,2,3,4-tetrahydro-isoquinolin-6-yl}-benzonitrile] it is 27.5 µM. Regarding `N#CCc1ccc(NC=C2C(=O)NC(=O)c3ccc(-c4ccc(-c5ccccc5)cc4)cc32)cc1` [Example 720, {4-[(6-Biphenyl-4-yl-1,3-dioxo-2,3-dihydro-1H-isoquinolin-4-ylidenemethyl)-amino]-phenyl}-acetonitrile], the IC50 worked out at 21.7 µM. For `N#CCc1ccc(NC=C2C(=O)NC(=O)c3ccc(-c4cccc(-c5ccccc5)c4)cc32)cc1` [Example 721, {4-[(6-Biphenyl-3-yl-1,3-dioxo-2,3-dihydro-1H-isoquinolin-4-ylidenemethyl)-amino]-phenyl}-acetonitrile] the value was 25.9 µM; for `CC(C)c1ccc(-c2ccc3c(c2)C(=CNc2ccc(CC#N)cc2)C(=O)NC3=O)cc1` [Example 722, (4-{[6-(4-Isopropyl-phenyl)-1,3-dioxo-2,3-dihydro-1H-isoquinolin-4-ylidenemethyl]-amino}-phenyl)-acetonitrile], 25.3 µM. `CSc1ccc(-c2ccc3c(c2)C(=CNc2ccc(CC#N)cc2)C(=O)NC3=O)cc1` [Example 723, (4-{[6-(4-Methylsulfanyl-phenyl)-1,3-dioxo-2,3-dihydro-1H-isoquinolin-4-ylidenemethyl]-amino}-phenyl)-acetonitrile]: the IC50 is 12.2 µM. As to `CN1CCN(c2ccc(NC=C3C(=O)NC(=O)c4ccc(C=Cc5ccc(Cl)cc5)cc43)cc2)CC1` [Example 726, 6-[2-(4-Chloro-phenyl)-vinyl]-4-{[4-(4-methyl-piperazin-1-yl)-phenylamino]-methylene}-4H-isoquinoline-1,3-dione], the IC50 worked out at 16.9 µM. The figure for `CN1CCN(c2ccc(NC=C3C(=O)NC(=O)c4ccc(C=Cc5ccc(C(=O)O)cc5)cc43)cc2)CC1` [Example 727, 4-[2-(4-{[4-(4-Methyl-piperazin-1-yl)-phenylamino]-methylene}-1,3-dioxo-1,2,3,4-tetrahydro-isoquinolin-6-yl)-vinyl]-benzoic acid] is 20.4 µM.

As for `COc1ccc(C=Cc2ccc3c(c2)C(=CNc2ccc(N4CCN(C)CC4)cc2)C(=O)NC3=O)cc1` [Example 732, 6-[2-(4-Methoxy-phenyl)-vinyl]-4-{[4-(4-methyl-piperazin-1-yl)-phenylamino]-methylene}-4H-isoquinoline-1,3-dione], the 50% inhibitory concentration (IC50) turned out to be 25.8 µM. Turning to `COc1ccc(CNC=C2C(=O)NC(=O)c3ccc(C=Cn4ccnc4)cc32)cc1O` [Example 733, 4-[(3-Hydroxy-4-methoxy-benzylamino)-methylene]-6-(2-imidazol-1-yl-vinyl)-4H-isoquinoline-1,3-dione], the IC50 was 0.01 µM.

Consider `NS(=O)(=O)c1ccc(CNC=C2C(=O)NC(=O)c3ccc(-c4ccc(C(=O)O)cc4)cc32)cc1` [Example 741, 4-{1,3-Dioxo-4-[(4-sulfamoyl-benzylamino)-methylene]-1,2,3,4-tetrahydro-isoquinolin-6-yl}-benzoic acid], for which the IC50 was 2.3 µM.

For `NS(=O)(=O)c1ccc(CNC=C2C(=O)NC(=O)c3ccc(-c4cccc(C(=O)O)c4)cc32)cc1` [Example 742, 3-{1,3-Dioxo-4-[(4-sulfamoyl-benzylamino)-methylene]-1,2,3,4-tetrahydro-isoquinolin-6-yl}-benzoic acid], the concentration for half-maximal inhibition (IC50) was determined as 13.8 µM.

The values are drawn from patent publication US7713994B2 (Wyeth LLC, priority 2005, dated 2010).
